Several values for one entry are separate records, joined by “and”; a condition that tells them apart may be missing. Identical values can stand only once.
Tests used:
[1] = system: C. elegans complex III (decylubiquinol-cytochrome C reductase); assay: In vitro complex III activity assay, C. elegans mitochondria; format: biochemical, Caenorhabditis elegans; details: for % Activity Complex III: 100 µM compound, relative to solvent control, mean (SEM); for Percent in vitro activity, Complex III (single replicate Rep1-Rep4) / Percent in vitro activity, Complex III (Mean): 100 μM of NPD compound, C. elegans mitochondria; for Percent in vitro activity, Complex III (single replicate Rep1-Rep4): individual biological replicates; for Percent in vitro activity, Complex III (Mean): mean of four biological replicates
Procedure: (§1) Mitochondria were isolated from the following free-living nematode strains: C. elegans—N2, CB3474, ECA882, ECA917, ECA1075, ECA1080; C. briggsae—AF16; P. pacificus—PS312; and P. hermaphrodita—B178. With the exception of the P. hermaphrodita strain B178, adult worms of each strain were grown in bulk through liquid culture to obtain mitochondria in sufficient quantities. Due to poor growth in liquid media, mixed stage populations of P. hermaphrodita were washed off and collected from NGM plates seeded with OP50. The isolation of mitochondria from all free-living nematode strains followed the protocol previously outlined in Burns et al.[24]. In brief, a 1 L saturated culture of E. coli HB101 was concentrated 20-fold in 50 mL complete S-medium. ~500,000 L1 worms synchronized from an embryo preparation performed the day prior were added to the S-media/HB101 suspension and grown to adulthood over the course of 3.5 days at 20 °C with shaking at 165 rpm. Following growth, worms were collected in 10 ×15 mL conical tubes and washed 7 times in M9 buffer. Worm suspensions were then combined into a single 15 mL conical tube and diluted to a final volume of 15 mL with M9 buffer. 1 mL aliquots of worm suspension were then distributed to 15 × 1.5 mL screw-cap microcentrifuge tubes and were pelleted at 500 g for 1 min. Excess M9 was aspirated without disturbing the worm pellet. 600 μL ice-cold isolate buffer A (250 mM sucrose, 10 mM Tris (pH 7.5), 1 mM EDTA, 1 mM PMSF (freshly prepared)) and 300 μL cold glass beads were then added to each tube. Tubes were incubated on ice for 10 min, and the worms were then lysed by bead beating (6 x 30 s, with 1 min cooling intervals). Tubes containing worm lysate were centrifuged at 1,000 g for 10 min at 4 °C and the supernatant was transferred to 15 new microcentrifuge tubes on ice. The tubes were centrifuged a second time at 1,000 g for 10 min at 4 °C and the supernatant was once again transferred to 15 new microcentrifuge tubes on ice. These tubes were then centrifuged at 16,000 g for 10 min at 4 °C. The resulting mitochondrial pellet was washed twice by re-suspension in 300 μL of ice-cold isolate buffer B (250 mM sucrose, 10 mM Tris (pH 7.5), 1 mM EDTA). Following the final wash, isolation buffer was aspirated from each tube and the pellets were flash-frozen in ethanol/dry ice and stored at −80 °C until needed.
(§2) The enzymatic activities of individual ETC complexes (I-IV) were assessed spectrophotometrically in isolated mitochondria using a Varioskan LUX Multimode plate reader (ThermoFisher Scientific). Mitochondrial pellets previously isolated were thawed on ice and resuspended in ice-cold isolation buffer (250 mM sucrose, 10 mM Tris (pH 7.5), 1 mM EDTA). The BCA assay (Walker, 1994) was used to quantify the protein concentration of mitochondria suspensions; solutions were diluted to a concentration of 0.2 mg/mL for use in all assays. For the complex I assay, mitochondria pellets were freeze-thawed on ice three times to increase enzyme accessibility. […] 20 μL mitochondria suspension was then added/mixed with a pipette to initiate the reaction. Immediately following the addition of mitochondria, absorbance was measured (complex I and II: 600 nm; complex III and IV: 550 nm) in 30 s intervals over 15 min. Enzymatic activity was determined in each reaction by plotting absorbance versus time and calculating the slope of the curve during the initial linear phase of the reaction. […] Percent activity of each complex was calculated by dividing the enzyme-specific activity of each well by the enzyme-specific activity of the corresponding solvent controls.
Antimycin A-sensitive complex III (decylubiquinol-cytochrome C […]) activity was determined by measuring the reduction of cytochrome C (CytC) as optimized in Luo et al.[59]. Decylubiquinol for complex III assays was prepared fresh as described in Janssen and Boyle, 2019[60].

L1 wild-type C. elegans = details: caenorhabditis elegans
[2] = system: C. elegans complex IV (cytochrome C oxidase); assay: In vitro complex IV activity assay, C. elegans mitochondria; format: biochemical, Caenorhabditis elegans; details: for % Activity Complex IV: 100 µM compound, relative to solvent control, mean (SEM); for Percent in vitro activity, Complex IV (single replicate Rep1-Rep4) / Percent in vitro activity, Complex IV (Mean): 100 μM of NPD compound, C. elegans mitochondria; for Percent in vitro activity, Complex IV (single replicate Rep1-Rep4): individual biological replicates; for Percent in vitro activity, Complex IV (Mean): mean of four biological replicates
Procedure: as §1, §2
Complex IV (cytochrome C oxidase) activity was determined by following the oxidation of CytC in the protocol outlined by Janssen and Boyle, 2019[60]. Reduced CytC was prepared fresh by adding 1 μL increments of 1 M dithiothreitol to a 1 mM solution of CytC and vortexing. A colour change from brown to orange/pink signals when CytC has been reduced.

C. elegans = C. elegans chemical screens of RIKEN NPD libraries at 50 μM (hit identification in KCN survival and development/viability assays); format: cell-based, Caenorhabditis elegans; details: screened at 50 μM in triplicate; hit = modified z-score < −3; KCN = KCN survival assay, Dev. & Viability = development/viability assay
[3] = target: C. elegans (N2) complex I (NADH:ubiquinone oxidoreductase) (Caenorhabditis elegans, UniProt P24887+Q93873+Q94360); assay: biochemical; format: biochemical; details: for % Activity Complex I: 100 µM compound, relative to solvent control, mean (SEM); for Percent in vitro activity, Complex I (single replicate Rep1-Rep4) / Percent in vitro activity, Complex I (Mean): 100 μM of NPD compound, C. elegans mitochondria; for Percent in vitro activity, Complex I (single replicate Rep1-Rep4): individual biological replicates; for Percent in vitro activity, Complex I (Mean): mean of four biological replicates
Sequence of C. elegans (N2) complex I (NADH:ubiquinone oxidoreductase) (Q94360 17-199): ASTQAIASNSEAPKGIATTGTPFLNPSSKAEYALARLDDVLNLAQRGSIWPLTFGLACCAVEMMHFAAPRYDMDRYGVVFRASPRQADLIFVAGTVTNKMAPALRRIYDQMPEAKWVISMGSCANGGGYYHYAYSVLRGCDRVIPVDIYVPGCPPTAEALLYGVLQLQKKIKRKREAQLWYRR
Sequence of C. elegans (N2) complex I (NADH:ubiquinone oxidoreductase) (P24887 whole entry): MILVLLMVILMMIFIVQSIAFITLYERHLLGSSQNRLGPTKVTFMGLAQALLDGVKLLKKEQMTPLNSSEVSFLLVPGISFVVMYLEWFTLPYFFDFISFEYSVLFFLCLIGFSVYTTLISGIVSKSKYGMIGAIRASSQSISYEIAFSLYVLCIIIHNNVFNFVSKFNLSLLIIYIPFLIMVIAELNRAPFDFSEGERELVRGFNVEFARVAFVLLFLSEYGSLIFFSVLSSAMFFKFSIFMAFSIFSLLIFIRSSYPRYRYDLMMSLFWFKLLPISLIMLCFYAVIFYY
Sequence of C. elegans (N2) complex I (NADH:ubiquinone oxidoreductase) (Q93873 31-482): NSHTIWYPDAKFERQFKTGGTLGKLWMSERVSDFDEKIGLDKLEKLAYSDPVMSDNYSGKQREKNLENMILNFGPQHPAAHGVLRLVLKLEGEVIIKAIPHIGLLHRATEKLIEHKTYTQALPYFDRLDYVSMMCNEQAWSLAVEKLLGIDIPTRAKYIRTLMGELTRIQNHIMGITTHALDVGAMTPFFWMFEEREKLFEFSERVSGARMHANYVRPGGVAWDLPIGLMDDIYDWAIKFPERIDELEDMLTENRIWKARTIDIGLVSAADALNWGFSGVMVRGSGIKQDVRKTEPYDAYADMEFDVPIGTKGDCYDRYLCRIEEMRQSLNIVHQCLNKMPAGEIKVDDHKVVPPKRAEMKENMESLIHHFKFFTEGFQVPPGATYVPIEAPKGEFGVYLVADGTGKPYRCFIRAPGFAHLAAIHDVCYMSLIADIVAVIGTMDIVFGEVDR
How it was run: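 Complex I rate: initial linear slope of A600 over 15 min, expressed as percent of solvent control. Triple freeze-thawed mitochondria (0.2 mg/mL) in KPi pH 7.5, BSA 3 mg/mL, NADH 80 μM, decylubiquinone 60 μM, DCIP 160 μM, antimycin A, KCN.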

[4] = target: C. elegans complex II (succinate dehydrogenase) (Caenorhabditis elegans, UniProt O62215+P41956+Q09545); assay: In vitro complex II activity assay, C. elegans mitochondria; format: biochemical; details: for % Activity Complex II: 100 µM compound, relative to solvent control, mean (SEM); for Percent in vitro activity, Complex II (single replicate Rep1-Rep4) / Percent in vitro activity, Complex II (Mean): 100 μM of NPD compound, C. elegans mitochondria; for Percent in vitro activity, Complex II (single replicate Rep1-Rep4): individual biological replicates; for Percent in vitro activity, Complex II (Mean): mean of four biological replicates
Sequence of C. elegans complex II (succinate dehydrogenase) (P41956 30-182): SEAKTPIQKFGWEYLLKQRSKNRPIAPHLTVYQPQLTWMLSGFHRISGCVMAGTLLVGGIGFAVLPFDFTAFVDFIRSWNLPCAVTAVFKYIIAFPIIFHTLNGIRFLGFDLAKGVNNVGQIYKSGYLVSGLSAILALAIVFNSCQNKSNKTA
Sequence of C. elegans complex II (succinate dehydrogenase) (Q09545 22-298): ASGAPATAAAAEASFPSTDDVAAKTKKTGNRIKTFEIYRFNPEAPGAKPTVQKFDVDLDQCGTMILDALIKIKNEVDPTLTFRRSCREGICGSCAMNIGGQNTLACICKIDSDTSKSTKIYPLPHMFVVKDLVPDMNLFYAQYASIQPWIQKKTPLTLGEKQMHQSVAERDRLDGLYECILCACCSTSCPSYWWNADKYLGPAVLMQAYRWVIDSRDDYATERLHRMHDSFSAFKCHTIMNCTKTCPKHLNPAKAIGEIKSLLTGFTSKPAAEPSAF
Sequence of C. elegans complex II (succinate dehydrogenase) (Q09508 32-646, further chain): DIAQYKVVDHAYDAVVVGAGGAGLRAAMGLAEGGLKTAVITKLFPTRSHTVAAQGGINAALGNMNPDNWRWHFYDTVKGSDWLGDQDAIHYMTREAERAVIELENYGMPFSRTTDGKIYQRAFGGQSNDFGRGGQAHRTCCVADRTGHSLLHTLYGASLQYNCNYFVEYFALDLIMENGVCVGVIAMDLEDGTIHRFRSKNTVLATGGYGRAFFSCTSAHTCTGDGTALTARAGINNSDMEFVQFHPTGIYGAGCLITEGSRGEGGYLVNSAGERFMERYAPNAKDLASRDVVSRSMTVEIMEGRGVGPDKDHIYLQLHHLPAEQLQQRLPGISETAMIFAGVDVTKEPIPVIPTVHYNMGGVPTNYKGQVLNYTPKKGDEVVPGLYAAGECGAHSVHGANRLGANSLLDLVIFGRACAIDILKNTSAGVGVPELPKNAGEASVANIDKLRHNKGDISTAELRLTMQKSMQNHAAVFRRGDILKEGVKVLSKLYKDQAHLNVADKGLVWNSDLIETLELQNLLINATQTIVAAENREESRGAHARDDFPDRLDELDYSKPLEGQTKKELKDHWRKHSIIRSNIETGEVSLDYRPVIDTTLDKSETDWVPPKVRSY
Sequence of C. elegans complex II (succinate dehydrogenase) (O62215 31-145): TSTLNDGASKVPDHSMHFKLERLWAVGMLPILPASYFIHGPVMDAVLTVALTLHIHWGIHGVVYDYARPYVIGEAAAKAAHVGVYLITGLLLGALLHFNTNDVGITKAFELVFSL
Procedure: as §1, §2
Complex II (succinate dehydrogenase) activity was assessed using the DCIP-coupled method previously described in Burns et al.[24].
For preliminary screens of hit compounds, compounds were screened at 100 μM; data are the average of at least three biological replicates. The complex I and II activity assays were used for additional dose-response experiments.

HEK293 cells = details: for CC50: read-out: HEK293 Cell Viability Assay LC50, 2 days exposure

SMILES	% Activity Complex III [1]	Percent in vitro activity, Complex III (single replicate Rep1-Rep4) [1]	Percent in vitro activity, Complex III (Mean) [1]	LC50 (L1 wild-type C. elegans)	% Activity Complex IV [2]	Percent in vitro activity, Complex IV (single replicate Rep1-Rep4) [2]	Percent in vitro activity, Complex IV (Mean) [2]	Hit Type (C. elegans)	% Activity Complex I [3]	Percent in vitro activity, Complex I (single replicate Rep1-Rep4) [3]	Percent in vitro activity, Complex I (Mean) [3]	% Activity Complex II [4]	Percent in vitro activity, Complex II (single replicate Rep1-Rep4) [4]	Percent in vitro activity, Complex II (Mean) [4]	HEK293 viability (HEK293 cells)	CC50 (HEK293 cells)
COc1ccc(-c2cc(=Nc3ccc(C)cc3)c3ccccc3o2)cc1OC [NPD1450]	111.72 (0.94) %	113.847% and 114.804% and 111.813% and 106.416%	111.720%	35.3 µM	117.12 (3.30) %	109.749% and 111.295% and 110.581% and 136.859%	117.121%	KCN	84.47 (2.03) %	79.543% and 95.426% and 77.236% and 85.664%	84.467%	103.01 (4.34) %	124.470% and 101.843% and 81.995% and 103.742%	103.012%	0.921	> 50 µM
COc1ccc(N=c2cc(-c3ccc(OC)cc3)oc3ccc(O)cc23)cc1 [NPD8034]	95.08 (1.51) %	95.115% and 96.990% and 101.326% and 86.891%	95.080%	12 µM	96.04 (2.78) %	88.996% and 91.859% and 90.669% and 112.640%	96.041%	KCN	99.30 (2.57) %	99.316% and 113.812% and 92.579% and 91.475%	99.295%	89.02 (4.77) %	117.368% and 83.101% and 77.239% and 78.358%	89.016%	–	11.2 µM
Cc1cc(O)c(C(=O)/C=C/c2ccccc2)c(=O)o1 [NPD8366]	76.74 (1.10) %	80.994% and 79.847% and 74.350% and 71.759%	76.737%	11.6 µM	97.72 (2.77) %	88.563% and 105.997% and 87.809% and 108.514%	97.721%	KCN	102.66 (1.57) %	109.574% and 101.002% and 105.233% and 94.820%	102.657%	86.41 (3.37) %	86.839% and 91.030% and 67.920% and 99.847%	86.409%	–	19.7 µM
CCCCCCCCCCCCCCCc1cccc(O)c1C(=O)O [Anacardic acid]	0.00 (0.00) %	0.000%	0.000%	3.35 µM	15.80 (1.15) %	11.285% and 16.095% and 13.805% and 22.025%	15.803%	KCN	92.95 (1.67) %	100.303% and 96.789% and 88.185% and 86.534%	92.953%	87.62 (1.34) %	86.093% and 91.144% and 92.500% and 80.735%	87.618%	–	> 50 µM

Reference: PMC11079024, “Identification of a family of species-selective complex I inhibitors as potential anthelmintics” (Nature Communications, 2024)
